Experimental data reported in the supplement of paper PMC10307832.

What was measured:
Experiment in all cases: relative viability (nuclei count vs DMSO), 5 days (fraction); higher = more cells survive
BX 795 + Pemetrexed = compound: O=C(NCCCNc1nc(Nc2cccc(NC(=O)N3CCCC3)c2)ncc1I)c1cccs1 [BX 795] + Nc1nc2[nH]cc(CCc3ccc(C(=O)N[C@@H](CCC(=O)O)C(=O)O)cc3)c2c(=O)[nH]1 [Pemetrexed] (partner 0.2 µM)
Method in brief: (§1)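 Relative viability was taken as the ratio of nuclei in treated wells to nuclei in vehicle wells. Lung cancer cell lines in 1536-well plates received compounds by pin tool one day after seeding, either one drug alone or a fixed anchor-drug dose plus five library-drug doses (not always all listed) in √10 steps. Nuclei were counted on 4× images after 5 days of treatment, and values are medians of duplicate plates.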

BX 795 + Bortezomib = compound: O=C(NCCCNc1nc(Nc2cccc(NC(=O)N3CCCC3)c2)ncc1I)c1cccs1 [BX 795] + CC(C)C[C@H](NC(=O)[C@H](Cc1ccccc1)NC(=O)c1cnccn1)B(O)O [Bortezomib] (partner 0.002 µM)
Method in brief: as §1

BX 795 + Tozasertib = compound: O=C(NCCCNc1nc(Nc2cccc(NC(=O)N3CCCC3)c2)ncc1I)c1cccs1 [BX 795] + Cc1cc(Nc2cc(N3CCN(C)CC3)nc(Sc3ccc(NC(=O)C4CC4)cc3)n2)n[nH]1 [Tozasertib] (partner 0.1 µM)
Method in brief: as §1

BX 795 + Foretinib = compound: O=C(NCCCNc1nc(Nc2cccc(NC(=O)N3CCCC3)c2)ncc1I)c1cccs1 [BX 795] + COc1cc2c(Oc3ccc(NC(=O)C4(C(=O)Nc5ccc(F)cc5)CC4)cc3F)ccnc2cc1OCCCN1CCOCC1 [Foretinib] (partner 0.25 µM)
Method in brief: as §1

BX 795 + Trametinib = compound: O=C(NCCCNc1nc(Nc2cccc(NC(=O)N3CCCC3)c2)ncc1I)c1cccs1 [BX 795] + CC(=O)Nc1cccc(-n2c(=O)n(C3CC3)c(=O)c3c(Nc4ccc(I)cc4F)n(C)c(=O)c(C)c32)c1 [Trametinib] (partner 0.02 µM)
Method in brief: as §1

Cell Line	relative viability (BX 795 + Pemetrexed; first compound 0.04 µM)	relative viability (BX 795 + Pemetrexed; first compound 0.1265 µM)	relative viability (BX 795 + Pemetrexed; first compound 0.4 µM)	relative viability (BX 795 + Pemetrexed; first compound 1.265 µM)	relative viability (BX 795 + Bortezomib; first compound 0.04 µM)	relative viability (BX 795 + Bortezomib; first compound 0.1265 µM)	relative viability (BX 795 + Bortezomib; first compound 0.4 µM)	relative viability (BX 795 + Bortezomib; first compound 1.265 µM)	relative viability (BX 795 + Tozasertib; first compound 0.04 µM)	relative viability (BX 795 + Tozasertib; first compound 0.1265 µM)	relative viability (BX 795 + Tozasertib; first compound 0.4 µM)	relative viability (BX 795 + Tozasertib; first compound 1.265 µM)	relative viability (BX 795 + Foretinib; first compound 0.04 µM)	relative viability (BX 795 + Foretinib; first compound 0.1265 µM)	relative viability (BX 795 + Foretinib; first compound 0.4 µM)	relative viability (BX 795 + Foretinib; first compound 1.265 µM)	relative viability (BX 795 + Trametinib; first compound 0.04 µM)	relative viability (BX 795 + Trametinib; first compound 0.1265 µM)	relative viability (BX 795 + Trametinib; first compound 0.4 µM)	relative viability (BX 795 + Trametinib; first compound 1.265 µM)
LC-2-ad	0.267	0.288	0.25	0.263	1.11	1.01	1.06	0.968	0.611	0.475	0.419	0.384	1.12	0.867	0.981	0.808	0.886	0.95	0.646	0.662
UMC-11	0.826	0.749	0.736	0.453	0.678	0.983	0.847	0.36	0.189	0.195	0.185	0.22	0.85	1.06	0.805	0.168	0.685	0.665	0.547	0.531
LOU-NH91	0.321	0.38	0.294	0.377	0.528	0.498	0.562	0.507	0.699	0.609	0.525	0.568	0.936	0.922	0.934	0.979	0.724	0.788	0.763	0.734
NCI-H1915	0.347	0.458	0.304	0.442	1.07	1.01	0.974	0.953	0.473	0.413	0.405	0.241	1.07	1.1	1.08	0.995	0.315	0.271	0.304	0.265
NCI-H1666	0.836	0.83	0.697	0.79	0.653	0.806	0.913	0.688	0.642	0.69	0.599	0.403	1.07	1.05	1.11	0.787	0.856	0.884	0.974	0.802
LCLC-97TM1	0.152	0.184	0.177	0.184	0.563	0.527	0.954	0.417	0.356	0.24	0.305	0.232	0.912	0.913	0.862	0.567	0.203	0.19	0.179	0.166
HCC-827	0.266	0.288	0.245	0.241	1.01	1.01	1.06	0.986	0.416	0.45	0.429	0.417	1.18	1.12	1.09	1.04	0.54	0.539	0.575	0.551
NCI-H647	0.163	0.186	0.106	0.106	0.913	1.11	0.801	0.3	0.256	0.352	0.218	0.233	1.19	1.24	1.26	0.916	0.447	0.504	0.448	0.344
NCI-H460	0.0535	0.0622	0.0597	0.0576	1.1	1.27	1.08	1.09	0.497	0.44	0.0824	0.184	1.03	1.16	1.01	0.922	0.265	0.138	0.13	0.12
NCI-H2087	0.695	0.655	0.696	0.654	0.952	0.898	1.18	0.719	0.266	0.293	0.307	0.183	1.06	1.13	1.24	0.623	0.235	0.163	0.242	0.221
COR-L23	0.204	0.188	0.176	0.171	1.1	1.02	0.916	0.979	0.201	0.186	0.168	0.111	1.07	0.97	0.909	0.715	0.622	0.628	0.509	0.344
NCI-H1355	0.798	0.977	1.09	1.01	1.23	1.22	1.31	1.22	0.589	0.442	0.486	0.385	1.03	1.07	1.09	0.773	0.427	0.344	0.44	0.362
HOP-62	0.303	0.284	0.296	0.306	0.51	0.59	0.615	0.682	0.381	0.441	0.361	0.275	1.04	0.967	1.37	0.923	0.374	0.369	0.365	0.317
PC-14	0.0872	0.135	0.0536	0.115	0.866	0.978	0.875	0.582	0.619	0.595	0.47	0.427	0.861	1.01	0.992	0.704	0.754	0.751	0.815	0.325
NCI-H2023	0.257	0.221	0.139	0.182	0.932	0.965	0.433	0.675	0.316	0.295	0.215	0.139	0.722	0.912	0.427	0.551	0.797	0.468	0.456	0.233
BEN	0.803	0.766	0.771	0.771	0.805	0.783	0.842	0.873	0.606	0.447	0.523	0.44	0.54	0.645	0.818	0.803	1.12	1.12	0.933	1.13
